Test results reported in ChEMBL document CHEMBL1201862, “PubChem BioAssay data set” (2004).
Calls of active or inactive are those of the source.

Columns and labels:
[1] = reduction of Shn3 3'UTR-driven luciferase in osteoblasts – cell-based, Clone20 osteoblasts, firefly luciferase, cherry-picked, dose response (AID 624132); assay type: functional;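 further: firefly luciferase luminescence from reporter carrying the Shn3 3'UTR in osteoblasts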
[2] = loss of viability in HepG2 cells – cell-based, CellTiter-Glo, cherry-picked, cytotoxicity control for Shn3 inhibitor project, dose response (AID 624134); assay type: functional
[3] = non-specific 3'UTR reporter inhibition in Clone20-Shn3RL – cell-based, Renilla luciferase, cherry-picked, counter-screen for Shn3 inhibitor project, dose response (AID 624133); assay type: functional
Protein Wnt-3a = Protein Wnt-3a (Mus musculus, UniProt P27467); assay: antagonism of Wnt3a pathway luciferase reporter – Wnt-LIGHT cells, luminescence, selectivity assay for Gli-SUFU antagonist project, dose response (AID 651570); assay type: functional; conditions: read-out: IC50_Mean;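 further: Wnt-LIGHT reporter cells stimulated with conditioned medium from Wnt3a-producing cells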
[4] = target: Melanin-concentrating hormone receptor 1 (Homo sapiens, UniProt Q99705); assay: Late-stage fluorescence-based counterscreen for antagonists of the G-protein coupled receptor 7 (GPR7): cell-based dose response assay to identify antagonists of the melanin-concentrating hormone receptor 1 (MCHR1) Set 6.; assay type: functional
[5] = target: T1, Neuropeptides B/W receptor type 1 (Homo sapiens, UniProt P48145); assay: human NPBW1 receptor blockade, IC50 – cell-based, fluorescence, dose response, set 6, late-stage follow-up (AID 588583); assay type: functional
T1 sequence (P48145 whole entry): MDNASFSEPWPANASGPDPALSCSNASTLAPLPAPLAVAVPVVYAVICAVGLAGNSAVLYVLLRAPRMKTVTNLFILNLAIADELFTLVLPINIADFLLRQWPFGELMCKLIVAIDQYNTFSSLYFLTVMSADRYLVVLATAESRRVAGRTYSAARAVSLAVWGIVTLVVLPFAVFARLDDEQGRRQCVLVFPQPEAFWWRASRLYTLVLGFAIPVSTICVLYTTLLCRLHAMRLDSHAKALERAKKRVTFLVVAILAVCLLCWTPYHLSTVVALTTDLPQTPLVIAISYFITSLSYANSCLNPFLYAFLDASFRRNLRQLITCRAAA

[6] = target: Ras and Rab interactor 1/Tyrosine-protein kinase ABL1 (Homo sapiens, UniProt P00519+Q13671); assay type: functional;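 further: biochemical TR-FRET dose-response test measuring inhibition of binding between Rin1 and Abl proteins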
Melanocortin receptor 4 = Melanocortin receptor 4 (Homo sapiens, UniProt P32245); assay type: functional, cell-based;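 further: Cell-based assay with luminescence read-out, confirmatory dose-response testing for agonist activity of biased ligands at MC4R; human U2OS cells with tagged receptor and beta-arrestin; potency of agonists that increase receptor coupling to beta-arrestin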
[7] = target: T2, Sentrin-specific protease 1 (Homo sapiens, UniProt Q9P0U3); assay: SENP1 catalytic domain blockers, concentration series – biochemical, kinetic FRET, dose response (AID 651697); assay type: functional; conditions: read-out: IC50_Mean
T2 sequence (Q9P0U3 whole entry): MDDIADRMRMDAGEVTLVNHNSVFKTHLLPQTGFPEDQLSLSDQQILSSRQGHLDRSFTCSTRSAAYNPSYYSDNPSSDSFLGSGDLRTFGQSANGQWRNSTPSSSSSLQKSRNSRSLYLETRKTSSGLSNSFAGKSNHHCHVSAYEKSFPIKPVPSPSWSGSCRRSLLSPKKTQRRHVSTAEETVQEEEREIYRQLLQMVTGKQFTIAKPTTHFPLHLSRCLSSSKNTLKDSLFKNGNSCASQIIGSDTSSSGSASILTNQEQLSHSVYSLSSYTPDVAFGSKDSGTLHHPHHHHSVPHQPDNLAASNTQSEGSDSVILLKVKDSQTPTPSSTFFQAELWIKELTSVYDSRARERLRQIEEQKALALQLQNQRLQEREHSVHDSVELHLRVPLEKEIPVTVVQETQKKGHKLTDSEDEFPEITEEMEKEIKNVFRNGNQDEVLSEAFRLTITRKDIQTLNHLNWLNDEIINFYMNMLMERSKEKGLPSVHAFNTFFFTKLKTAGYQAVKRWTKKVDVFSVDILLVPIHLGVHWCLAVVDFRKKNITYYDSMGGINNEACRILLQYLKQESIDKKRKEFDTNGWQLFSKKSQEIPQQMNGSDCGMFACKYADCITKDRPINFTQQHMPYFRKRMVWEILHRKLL

[8] = target: T2, Sentrin-specific protease 1; assay: Dose response confirmation of small molecule inhibitors of the catalytic domain of the SUMO protease, SENP1 in a FRET assay.; assay type: functional; conditions: read-out: IC50_Mean
[9] = target: Potassium voltage-gated channel subfamily KQT member 2 (Rattus norvegicus, UniProt O88943); assay: blockers of KCNQ2 channel current – cell-based, automated electrophysiology, set II, rat KCNQ2, dose response (AID 588637); assay type: functional
[10] = target: T3, RNA-binding protein pos-1 (Caenorhabditis elegans, UniProt G5EF15); assay: disruptors of C. elegans POS-1 RNA interaction – biochemical, fluorescence polarization, dose response (AID 1964);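 further: purified POS-1 fused to maltose binding protein made in E. coli; potency of compounds blocking POS-1 binding to fluorescent RNA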
T3 sequence (G5EF15 whole entry): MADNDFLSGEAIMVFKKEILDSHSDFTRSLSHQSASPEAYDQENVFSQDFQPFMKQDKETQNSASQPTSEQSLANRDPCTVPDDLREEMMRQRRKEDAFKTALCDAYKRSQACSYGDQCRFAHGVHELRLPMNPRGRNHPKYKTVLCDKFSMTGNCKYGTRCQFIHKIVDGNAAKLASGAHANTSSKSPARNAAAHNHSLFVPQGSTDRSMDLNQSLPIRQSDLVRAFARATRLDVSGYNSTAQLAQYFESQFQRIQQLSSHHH

[11] = target: T4, Zinc finger protein mex-5 (Caenorhabditis elegans, UniProt Q9XUB2); assay: potency of MEX-5 RNA-binding blockers – biochemical, C. elegans, fluorescence polarization, dose response (AID 1960)
T4 sequence (Q9XUB2 whole entry): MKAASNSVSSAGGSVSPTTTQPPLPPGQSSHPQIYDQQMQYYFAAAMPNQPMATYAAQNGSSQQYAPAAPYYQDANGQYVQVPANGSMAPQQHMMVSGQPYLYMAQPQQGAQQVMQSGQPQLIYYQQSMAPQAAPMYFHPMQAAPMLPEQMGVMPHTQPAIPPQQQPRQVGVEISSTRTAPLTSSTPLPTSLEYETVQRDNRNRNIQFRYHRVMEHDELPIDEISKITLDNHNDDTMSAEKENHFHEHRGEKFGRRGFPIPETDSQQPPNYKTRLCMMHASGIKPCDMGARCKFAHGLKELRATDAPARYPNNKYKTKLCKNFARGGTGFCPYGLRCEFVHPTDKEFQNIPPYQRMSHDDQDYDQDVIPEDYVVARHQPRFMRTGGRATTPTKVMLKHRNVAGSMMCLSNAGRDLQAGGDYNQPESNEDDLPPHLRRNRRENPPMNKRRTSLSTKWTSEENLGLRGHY

Genome polyprotein = Genome polyprotein (dengue virus type 2, UniProt P29990); assay: flavivirus cap methylation enzyme inhibition – biochemical, confirmation dose response, primary screen (AID 588689); assay type: functional
[12] = target: T5, Carboxy-terminal domain RNA polymerase II polypeptide A small phosphatase 1 (Homo sapiens, UniProt Q9GZU7); assay: CTDSP1 inhibitors, concentration-response, biochemical, absorbance readout, ultra-high-throughput screen actives (AID 540297); assay type: functional
T5 sequence (Q9GZU7 whole entry): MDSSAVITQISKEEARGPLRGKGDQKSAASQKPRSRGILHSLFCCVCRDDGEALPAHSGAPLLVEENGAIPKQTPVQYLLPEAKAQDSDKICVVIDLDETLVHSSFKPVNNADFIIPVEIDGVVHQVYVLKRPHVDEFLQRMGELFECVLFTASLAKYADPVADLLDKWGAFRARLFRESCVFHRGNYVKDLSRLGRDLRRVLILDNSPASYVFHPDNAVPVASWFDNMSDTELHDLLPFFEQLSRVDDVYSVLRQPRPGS

[13] = target: DNA (cytosine-5)-methyltransferase 1 (Homo sapiens, UniProt P26358); assay: inhibition of DNA methylation by DNMT1 – biochemical, fluorescent molecular beacon, confirmation (AID 602386); assay type: functional
[14] = target: Histone-lysine N-methyltransferase NSD2 (Homo sapiens, UniProt O96028); assay type: biochemical
[15] = Luminescence Cell-Based Dose Confirmation HTS to Identify Activators of 5'UTR Stem-Loop Driven Alpha-Synuclein mRNA Translation in H4 Neuroglioblastoma Cells. [Related pubchem assays: 1829 (Project Summary), 1814 (Primary HTS)]; assay type: functional
[16] = Luminescence Cell-Based Dose Response HTS to Identify Activators of Luciferase Translation or Activity in H4 […] Cells. [Related pubchem assays: 1829 (Project Summary), 1814 (Primary HTS)]; assay type: functional
H4 = assay: Luminescence Cell-Based Dose Response HTS to Identify Activators of 5'UTR Stem-Loop Driven Prion Protein mRNA Translation in H4 Neuroglioblastoma Cells. [Related pubchem assays: 1829 (Project Summary), 1814 (Primary HTS)]; assay type: functional; conditions: Homo sapiens
[17] = Vero cell cytotoxicity, cytotoxicity control for M. tuberculosis inhibitor project, purified and synthesized samples, set 3 (AID 504684); assay type: functional
[18] = inhibition of ARNT PAS-B/TACC3 complex formation – biochemical, AlphaScreen, cherry-picked samples, confirmation (AID 651703); assay type: functional, Homo sapiens;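 further: His-tagged ARNT PAS-B domain paired with GST-TACC3 E629A dimer coactivator fragment; potency of inhibitors that break up the complex and lower AlphaScreen signal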
[19] = target: DNA repair and recombination protein RAD54-like (Homo sapiens, UniProt Q92698); assay: RAD54 Holliday junction migration blockers – biochemical, fluorescence, cherry-picked samples, dose series, confirmation (AID 651657); assay type: functional
DNA repair and recombination protein RAD54-like, sequence (Q92698 whole entry): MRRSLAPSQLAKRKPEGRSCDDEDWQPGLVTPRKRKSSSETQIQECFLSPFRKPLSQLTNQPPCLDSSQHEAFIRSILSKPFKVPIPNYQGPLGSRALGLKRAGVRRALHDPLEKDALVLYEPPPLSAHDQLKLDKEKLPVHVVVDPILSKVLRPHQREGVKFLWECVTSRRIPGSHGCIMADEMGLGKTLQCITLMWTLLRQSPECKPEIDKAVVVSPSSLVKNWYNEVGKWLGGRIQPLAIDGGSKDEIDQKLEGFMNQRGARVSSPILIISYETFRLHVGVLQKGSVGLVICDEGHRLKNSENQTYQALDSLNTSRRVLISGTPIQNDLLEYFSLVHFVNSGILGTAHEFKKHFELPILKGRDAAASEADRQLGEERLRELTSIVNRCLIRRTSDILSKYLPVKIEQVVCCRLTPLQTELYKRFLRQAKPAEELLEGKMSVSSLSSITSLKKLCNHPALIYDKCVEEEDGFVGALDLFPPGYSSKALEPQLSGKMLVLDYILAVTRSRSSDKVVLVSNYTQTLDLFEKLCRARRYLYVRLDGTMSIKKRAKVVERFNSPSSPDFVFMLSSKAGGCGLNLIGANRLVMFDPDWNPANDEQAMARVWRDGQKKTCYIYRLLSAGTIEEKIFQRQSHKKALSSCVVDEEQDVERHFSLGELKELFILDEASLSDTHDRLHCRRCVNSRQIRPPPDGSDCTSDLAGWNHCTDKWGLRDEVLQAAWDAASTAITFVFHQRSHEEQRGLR

Protein Wnt-3a, sequence (P27467 whole entry): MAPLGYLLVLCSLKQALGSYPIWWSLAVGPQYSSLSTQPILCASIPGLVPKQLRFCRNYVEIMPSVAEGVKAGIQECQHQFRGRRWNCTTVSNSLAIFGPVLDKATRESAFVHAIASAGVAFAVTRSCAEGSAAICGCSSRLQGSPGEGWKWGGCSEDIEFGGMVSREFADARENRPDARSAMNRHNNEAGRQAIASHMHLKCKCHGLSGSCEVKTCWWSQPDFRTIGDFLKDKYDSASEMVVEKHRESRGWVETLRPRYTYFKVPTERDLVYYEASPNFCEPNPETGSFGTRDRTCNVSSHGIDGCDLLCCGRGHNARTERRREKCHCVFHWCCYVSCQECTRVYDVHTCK
Melanocortin receptor 4, sequence (P32245 whole entry, the tested form may be a part): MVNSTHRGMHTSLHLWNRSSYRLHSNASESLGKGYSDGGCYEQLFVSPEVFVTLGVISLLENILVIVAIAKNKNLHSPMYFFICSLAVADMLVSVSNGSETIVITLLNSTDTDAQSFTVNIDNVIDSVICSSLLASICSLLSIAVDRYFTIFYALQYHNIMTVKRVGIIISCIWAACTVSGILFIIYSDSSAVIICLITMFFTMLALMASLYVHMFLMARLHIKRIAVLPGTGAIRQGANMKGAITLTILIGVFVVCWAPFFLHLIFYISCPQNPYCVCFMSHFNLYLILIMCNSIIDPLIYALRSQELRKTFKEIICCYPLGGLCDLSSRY
Ras and Rab interactor 1/Tyrosine-protein kinase ABL1, sequence (P00519 whole entry): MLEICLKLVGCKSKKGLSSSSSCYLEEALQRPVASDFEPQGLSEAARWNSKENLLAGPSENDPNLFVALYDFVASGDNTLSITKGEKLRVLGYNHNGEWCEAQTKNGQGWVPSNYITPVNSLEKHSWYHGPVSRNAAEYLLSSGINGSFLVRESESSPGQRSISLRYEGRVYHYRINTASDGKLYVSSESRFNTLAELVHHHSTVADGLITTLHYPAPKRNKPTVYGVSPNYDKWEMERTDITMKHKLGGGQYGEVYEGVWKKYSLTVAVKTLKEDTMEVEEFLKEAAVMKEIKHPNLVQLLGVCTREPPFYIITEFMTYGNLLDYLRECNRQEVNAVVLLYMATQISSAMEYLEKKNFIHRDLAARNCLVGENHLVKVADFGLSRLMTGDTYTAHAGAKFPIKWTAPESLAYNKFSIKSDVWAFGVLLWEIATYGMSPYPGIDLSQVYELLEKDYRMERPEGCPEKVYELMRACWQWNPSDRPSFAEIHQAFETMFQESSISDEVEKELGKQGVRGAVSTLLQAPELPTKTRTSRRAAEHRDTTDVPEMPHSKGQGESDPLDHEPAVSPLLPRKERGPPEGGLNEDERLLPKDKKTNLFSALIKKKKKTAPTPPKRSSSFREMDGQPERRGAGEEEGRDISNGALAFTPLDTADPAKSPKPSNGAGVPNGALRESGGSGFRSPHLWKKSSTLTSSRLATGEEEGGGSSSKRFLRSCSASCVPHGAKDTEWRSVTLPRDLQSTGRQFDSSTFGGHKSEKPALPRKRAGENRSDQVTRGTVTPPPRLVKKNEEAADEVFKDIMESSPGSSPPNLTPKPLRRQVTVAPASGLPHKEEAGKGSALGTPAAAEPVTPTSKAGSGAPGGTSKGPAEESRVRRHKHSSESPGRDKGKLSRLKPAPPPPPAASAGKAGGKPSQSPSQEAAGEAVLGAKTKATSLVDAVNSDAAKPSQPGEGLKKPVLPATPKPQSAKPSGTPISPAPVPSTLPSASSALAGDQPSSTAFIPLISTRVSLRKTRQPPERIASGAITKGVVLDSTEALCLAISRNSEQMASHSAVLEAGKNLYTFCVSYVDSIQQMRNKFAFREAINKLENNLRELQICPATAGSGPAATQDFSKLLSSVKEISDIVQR
Ras and Rab interactor 1/Tyrosine-protein kinase ABL1, sequence (Q13671 whole entry): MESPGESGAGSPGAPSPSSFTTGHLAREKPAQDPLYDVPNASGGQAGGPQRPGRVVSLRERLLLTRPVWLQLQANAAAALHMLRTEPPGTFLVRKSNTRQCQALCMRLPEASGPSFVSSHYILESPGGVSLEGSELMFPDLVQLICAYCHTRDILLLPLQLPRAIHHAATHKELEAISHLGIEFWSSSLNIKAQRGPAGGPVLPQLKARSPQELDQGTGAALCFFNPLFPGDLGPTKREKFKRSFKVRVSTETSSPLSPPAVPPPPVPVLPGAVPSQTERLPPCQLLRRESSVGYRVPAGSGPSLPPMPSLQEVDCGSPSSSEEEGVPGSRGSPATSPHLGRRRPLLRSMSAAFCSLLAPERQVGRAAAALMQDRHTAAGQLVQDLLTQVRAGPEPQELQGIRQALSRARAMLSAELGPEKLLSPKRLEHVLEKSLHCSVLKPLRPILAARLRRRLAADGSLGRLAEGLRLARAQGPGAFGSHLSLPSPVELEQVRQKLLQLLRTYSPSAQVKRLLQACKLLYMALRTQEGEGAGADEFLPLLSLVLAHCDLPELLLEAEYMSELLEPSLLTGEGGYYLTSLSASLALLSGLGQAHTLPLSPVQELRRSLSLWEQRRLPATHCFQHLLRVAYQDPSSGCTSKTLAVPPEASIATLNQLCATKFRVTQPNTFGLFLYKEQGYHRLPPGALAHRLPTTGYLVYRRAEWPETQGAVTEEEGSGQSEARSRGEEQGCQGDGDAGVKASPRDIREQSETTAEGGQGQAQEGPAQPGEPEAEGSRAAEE
Histone-lysine N-methyltransferase NSD2, sequence (O96028 whole entry): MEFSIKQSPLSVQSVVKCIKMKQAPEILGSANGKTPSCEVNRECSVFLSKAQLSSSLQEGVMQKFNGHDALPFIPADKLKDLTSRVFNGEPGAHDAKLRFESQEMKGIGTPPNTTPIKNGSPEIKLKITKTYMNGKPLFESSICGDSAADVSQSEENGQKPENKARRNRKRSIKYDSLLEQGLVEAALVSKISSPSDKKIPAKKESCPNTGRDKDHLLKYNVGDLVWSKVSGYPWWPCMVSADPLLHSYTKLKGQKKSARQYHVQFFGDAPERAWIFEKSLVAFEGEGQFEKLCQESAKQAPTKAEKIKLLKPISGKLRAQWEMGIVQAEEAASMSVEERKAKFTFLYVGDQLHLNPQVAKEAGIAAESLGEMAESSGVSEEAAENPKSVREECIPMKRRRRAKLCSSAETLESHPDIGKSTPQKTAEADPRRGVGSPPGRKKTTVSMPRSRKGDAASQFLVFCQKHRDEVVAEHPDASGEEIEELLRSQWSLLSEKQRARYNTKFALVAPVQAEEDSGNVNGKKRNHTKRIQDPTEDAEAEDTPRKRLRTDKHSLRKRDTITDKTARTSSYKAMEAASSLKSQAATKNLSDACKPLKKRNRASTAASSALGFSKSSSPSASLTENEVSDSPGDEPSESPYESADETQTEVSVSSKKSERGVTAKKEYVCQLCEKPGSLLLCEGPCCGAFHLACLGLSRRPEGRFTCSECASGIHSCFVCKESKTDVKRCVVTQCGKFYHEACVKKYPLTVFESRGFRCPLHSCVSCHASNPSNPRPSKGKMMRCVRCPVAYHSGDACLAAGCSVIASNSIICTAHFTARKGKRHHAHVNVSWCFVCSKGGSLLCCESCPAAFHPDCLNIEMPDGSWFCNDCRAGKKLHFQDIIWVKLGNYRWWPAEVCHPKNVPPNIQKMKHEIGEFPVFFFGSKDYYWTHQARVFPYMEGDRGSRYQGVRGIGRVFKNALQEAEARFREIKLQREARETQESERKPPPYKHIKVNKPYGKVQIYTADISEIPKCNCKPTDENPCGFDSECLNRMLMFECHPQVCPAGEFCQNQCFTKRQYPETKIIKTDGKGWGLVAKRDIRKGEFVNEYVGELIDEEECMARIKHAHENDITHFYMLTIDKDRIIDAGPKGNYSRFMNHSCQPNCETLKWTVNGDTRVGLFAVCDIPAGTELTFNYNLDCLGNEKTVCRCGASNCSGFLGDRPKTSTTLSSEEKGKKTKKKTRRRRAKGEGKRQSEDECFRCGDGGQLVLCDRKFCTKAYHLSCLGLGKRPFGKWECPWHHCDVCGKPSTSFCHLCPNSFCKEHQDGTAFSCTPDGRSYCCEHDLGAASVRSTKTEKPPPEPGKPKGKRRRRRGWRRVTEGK
Melanin-concentrating hormone receptor 1, sequence (Q99705 whole entry): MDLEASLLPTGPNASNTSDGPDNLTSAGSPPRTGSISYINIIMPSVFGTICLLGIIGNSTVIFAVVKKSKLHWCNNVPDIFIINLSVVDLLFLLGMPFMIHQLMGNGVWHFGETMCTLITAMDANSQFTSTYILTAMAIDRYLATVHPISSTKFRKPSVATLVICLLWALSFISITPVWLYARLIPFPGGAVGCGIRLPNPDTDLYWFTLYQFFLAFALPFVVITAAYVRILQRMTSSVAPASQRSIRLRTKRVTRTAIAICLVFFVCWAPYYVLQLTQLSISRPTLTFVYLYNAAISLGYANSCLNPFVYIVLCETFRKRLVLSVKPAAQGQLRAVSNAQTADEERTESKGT

In the case of `CCCCN(C(C)=O)c1ccc2c(c1)C1CC2CCN1C(=O)OCc1ccccc1` (stereo not drawn), the AC50 [1] is reported as 1.37 µM (active), the AC50 [2] is reported as 66.9 µM (active) and the AC50 [3] is reported as 4.4 µM (active). For the same compound, the IC50 (Protein Wnt-3a) was 3.72 µM (active).

For `N#CC(c1ccc(F)c(F)c1)c1c(Cl)cnn(Cc2cccc3ccccc23)c1=O` (stereo not drawn), the IC50 [4] was 0.186 µM (active) and the IC50 [5] was 0.186 µM (active).

In the case of `Oc1ncnc2c1C(c1ccccc1)c1c(O)ncnc1O2`, the IC50 [6] is reported as 32 µM (inactive).

In the case of `CC(=O)c1cccc(-c2cnc3c(NC=O)cc(-c4ccc(N(C)C)cc4)cn23)c1`, the EC50 (Melanocortin receptor 4) is reported as > 89.2 µM (inactive), the IC50 [7] is reported as 9.66 µM (active) and the IC50 [8] is reported as 11.2 µM (active).

With `COCCNC(C(=O)Nc1cc(Cl)cc(Cl)c1)c1ccccc1` (stereo not drawn) the IC50 [9] was 16.1 µM (active).

For `Cc1cc(/C=C2\C(=O)NC(=O)N(c3ccccc3F)C2=O)c(C)n1-c1cc(C(=O)O)cc(C(=O)O)c1`, the EC50 [10] was > 300 µM (not active), the EC50 [11] was > 300 µM (not active) and the IC50 (Genome polyprotein) was 63.6 µM (active). For the same compound, the IC50 [12] was 1.55 µM (active), the IC50 [13] was 10.7 µM (active) and the AC50 [14] was > 20 µM (inactive).

For `CCc1ccc(/C=C2/C(=O)N(C)C(=S)N2CC(=O)OC)s1`, the EC50 [15] was 16.6 µM (active), the EC50 [16] was > 120 µM (not active) and the EC50 (H4) was > 120 µM (not active). The CC50 [17] was > 100 µM (active).

In the case of `N#C[C@@H]1[C@@H](c2ccc(-c3ccc(F)cc3)cc2)[C@H](CO)N1c1nc(-c2ccccc2)cs1`, the AC50 [18] is reported as 84.2 µM (active).

For `Cn1c(C(=O)NCCN2CCCCCC2)cc2c(=O)n(C)c3ccccc3c21`, the AC50 [19] was 25.3 µM (active).
